Test results from patent publication US20240408071A1, “NOVEL COMBINATION OF SEROTONIN RECEPTOR (5-HTR2B) ANTAGONIST AND AN IMMUNOMODULATOR AND CHEMOTHERAPEUTIC DRUGS FOR INHIBITION OF CANCER” (NATIONAL CENTRE FOR CELL SCIENCE, priority 2021, published 2024).

Key:
MC38 cells = test: Cell cycle analysis of MC38 cells by propidium iodide staining (flow cytometry); format: cell-based, mouse; conditions: 48-hour stimulation; BW-723C86 50 μM, SB-215505 50 μM per FIG. 6 legend
Experimental: FIG. 6 depicts that 5-HTR2B signalling in colon cancer affects cell proliferation and viability: Colon cancer MC38 cells were treated with serotonin (100 μM), 5-HTR2B agonist (BW-723C86; 50 μM), or 5-HTR2B antagonist (SB-215505; 50 μM) for 48 hours, and cell cycle analysis was performed by propidium iodide staining using flow cytometry. MC38 cells were also treated with a graded dose of 5-HTR2B agonist (BW-723C86) or serotonin. MTT assay was performed to measure cell viability. (A) After treatment with 5-HTR2B agonist BW-723C86, serotonin, or 5-HTR2B antagonist SB-215505, the relative cell cycle analysis is shown. (B) Relative cell viability data of MC38 cells following treatment of graded doses of 5-HTR2B agonist BW-723C86 or serotonin are shown. The data shown are representative of one of the three independent experiments. (C) MC38 tumor sections from the control tumor and 5-HTR2B antagonist treated tumor were stained for CD31 and the number of CD31^+ micro-blood vessels/mm^2 of tissue sections was counted and plotted to observe angiogenesis. Error bar represents ±standard error of the mean (SEM).
MC38 cells were seeded in 6 well plates at a density of 5×10^4 cells/well. Cells were allowed to accommodate in the environment for 24 hours. The treatment with 5-HTR2B agonist (BW-723C86), Serotonin, and 5-HTR2B antagonist (RS-127445) was performed at different time points. […]

MC38 tumor = test: Adoptive transfer of lymph node cells into NRG mice bearing MC38 and B16F10 tumors: MC38 flank; format: in vivo; conditions: donor mice treated 10 days; tumor-draining lymph node cells; MC38 flank (FIG. 11B)
Experimental: FIG. 11 depicts the effect of 5-HTR antagonists on the antigen-specific CTL response MC38 tumor model in mice: (A) Representative experimental plan of the adoptive transfer experiment where NRG mice. In brief, NRG mice were inoculated with MC38 on one flank and B16F10 cells on the other. These mice received total lymph node cells from naïve C57BL/6J mice or MC38 tumor-bearing control or RS-127445 treated mice. (B) Tumor volume data from the above-described experiment was measured and plotted (C) Immunocytochemistry data showing expression of H2-Kb-[…]^+ (red) on MC38 cells transfected with pCL-neo-OVA plasmid on the right side and MC38 cells without transfection. DAPI is used as a counterstain. (D-E) C7BL/6J mice were inoculated with an MC38-ova cell line and treated with RS-127445 or left untreated. After 10 days of such treatment, Total lymph node cells were harvested tagged with CFSE, and cultured in the presence of ovalbumin protein (50 μg/ml) for 5 days. After 5 days cells were checked for CFSE expression by flow cytometry to check proliferation. Here is the data (D) showing the CFSE in CD8^+ cells. The statistical data of the total percentage of CFSE^− CD8 T cells corresponding with the percentage of proliferated CD8 T cells were plotted. […]

For `CC(N)Cc1c[nH]c2ccc(OCc3cccs3)cc12` (centres unmarked) [BW-723C86], the “percentage of MC38 cells in the S phase of the cell cycle” value (MC38 cells) was “increased percentage of cells in the S phase”.

With `CC(C)c1cc(-c2ccc(F)c3ccccc23)nc(N)n1` [RS-127445] the “MC38 tumor growth after transfer of antagonist primed total immune cells” value (MC38 tumor) was “able to control MC38 tumor growth”.
